Activity calls are given as the source filed them.
What was measured:
[1] = target: T1, Insulin-degrading enzyme (Homo sapiens, UniProt P14735); assay: activators of recombinant IDE enzyme, dose response, counter-screen for IDE activator project, biochemical, fluorescence polarization (AID 588681)
T1 sequence (P14735 whole entry): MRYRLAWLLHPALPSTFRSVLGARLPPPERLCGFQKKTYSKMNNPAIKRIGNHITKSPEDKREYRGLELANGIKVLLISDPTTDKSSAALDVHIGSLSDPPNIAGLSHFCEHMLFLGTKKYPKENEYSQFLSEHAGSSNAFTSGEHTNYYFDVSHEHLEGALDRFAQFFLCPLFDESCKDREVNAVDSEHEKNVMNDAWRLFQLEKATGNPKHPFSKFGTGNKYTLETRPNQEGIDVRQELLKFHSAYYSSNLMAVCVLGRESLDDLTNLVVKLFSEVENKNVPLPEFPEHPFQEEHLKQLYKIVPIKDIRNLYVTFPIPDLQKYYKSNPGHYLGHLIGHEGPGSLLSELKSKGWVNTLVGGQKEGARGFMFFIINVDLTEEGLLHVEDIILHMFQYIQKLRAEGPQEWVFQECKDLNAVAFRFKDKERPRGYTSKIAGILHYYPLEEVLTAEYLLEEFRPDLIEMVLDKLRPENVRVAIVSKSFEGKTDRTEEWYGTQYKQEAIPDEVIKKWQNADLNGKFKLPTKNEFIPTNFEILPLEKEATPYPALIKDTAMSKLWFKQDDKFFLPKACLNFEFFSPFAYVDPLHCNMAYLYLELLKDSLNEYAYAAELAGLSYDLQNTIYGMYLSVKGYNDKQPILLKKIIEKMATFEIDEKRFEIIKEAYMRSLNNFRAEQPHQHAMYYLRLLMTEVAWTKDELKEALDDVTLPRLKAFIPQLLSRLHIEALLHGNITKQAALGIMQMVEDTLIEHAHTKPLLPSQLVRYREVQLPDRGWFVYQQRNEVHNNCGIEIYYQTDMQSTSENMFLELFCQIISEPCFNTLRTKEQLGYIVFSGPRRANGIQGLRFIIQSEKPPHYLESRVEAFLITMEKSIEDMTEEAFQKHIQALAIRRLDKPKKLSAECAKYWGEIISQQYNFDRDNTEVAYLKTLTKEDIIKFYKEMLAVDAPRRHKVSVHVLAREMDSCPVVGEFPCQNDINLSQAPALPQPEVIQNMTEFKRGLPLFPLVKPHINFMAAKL

[2] = target: T2, Ubiquitin-conjugating enzyme E2 N (Homo sapiens, UniProt P61088); assay type: functional
T2 sequence (P61088 whole entry): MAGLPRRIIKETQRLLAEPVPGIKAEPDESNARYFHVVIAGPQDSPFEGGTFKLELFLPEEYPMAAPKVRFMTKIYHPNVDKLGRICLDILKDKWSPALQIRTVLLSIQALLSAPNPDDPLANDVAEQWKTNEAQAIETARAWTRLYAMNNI

[3] = target: T1, Insulin-degrading enzyme; assay: activators of endogenous IDE in HEK cells, dose response, cell-based, fluorescence polarization (AID 588439); assay type: functional
[4] = tested on: HEK293; assay: optical interference in Abeta FP readout, dose response, artefact control for IDE activator project, biochemical, fluorescence polarization (AID 588442); assay type: functional, cell-based; conditions: Homo sapiens
[5] = target: T3, Bcl-2-related protein A1 (Mus musculus, UniProt Q07440); assay type: functional;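 note: confirmatory dose–response counterscreen on Bfl-1, used to check hits from a UBC13 polyubiquitin inhibitor campaign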
T3 sequence (Q07440 whole entry): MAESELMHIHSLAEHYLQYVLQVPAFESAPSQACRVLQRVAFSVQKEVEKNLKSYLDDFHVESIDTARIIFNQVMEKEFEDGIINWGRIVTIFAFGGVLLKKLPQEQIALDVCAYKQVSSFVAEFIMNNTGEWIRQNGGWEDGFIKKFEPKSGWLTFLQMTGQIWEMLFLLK

[6] = tested on: HEK293; assay: HEK cell cytotoxicity by LDH release, dose response, cytotoxicity control for IDE activator project, fluorescence, HEK cells (AID 588440); assay type: functional, cell-based, Homo sapiens; conditions: Homo sapiens, HEK293;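 note: cytotoxicity by LDH release measuring loss of membrane integrity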
[7] = target: T2, Ubiquitin-conjugating enzyme E2 N; assay type: functional; remark: listed apart in the source
[8] = target: T4, Long-chain-fatty-acid--AMP ligase FadD28 (Mycobacterium tuberculosis, UniProt P9WQ59); assay: Fluorescence polarization aasay to screen for inhibitors that compete for the binding of FadD28 to a bisubstrate Measured in Biochemical System Using Plate Reader - 2147-01_Inhibitor_Dose_CherryPick_Activity.; assay type: functional, Mycobacterium tuberculosis H37Rv
T4 sequence (P9WQ59 whole entry): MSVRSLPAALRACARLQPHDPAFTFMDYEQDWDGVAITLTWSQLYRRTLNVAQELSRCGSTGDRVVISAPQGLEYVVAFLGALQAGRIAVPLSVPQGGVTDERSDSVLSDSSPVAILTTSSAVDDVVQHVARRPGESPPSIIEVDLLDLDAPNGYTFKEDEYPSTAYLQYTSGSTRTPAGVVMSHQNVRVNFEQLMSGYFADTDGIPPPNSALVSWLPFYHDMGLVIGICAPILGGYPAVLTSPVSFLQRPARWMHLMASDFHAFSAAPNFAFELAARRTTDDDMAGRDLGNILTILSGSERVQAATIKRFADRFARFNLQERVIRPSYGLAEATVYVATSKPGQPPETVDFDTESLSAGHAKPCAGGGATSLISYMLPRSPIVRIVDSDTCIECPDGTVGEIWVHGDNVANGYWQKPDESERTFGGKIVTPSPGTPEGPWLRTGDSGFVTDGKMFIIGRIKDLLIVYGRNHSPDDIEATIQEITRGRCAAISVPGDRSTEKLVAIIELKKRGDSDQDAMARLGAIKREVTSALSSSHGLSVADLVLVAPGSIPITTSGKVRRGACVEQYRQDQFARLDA

[9] = target: T5, Type-1 angiotensin II receptor (Homo sapiens, UniProt P30556); assay: AT1 receptor antagonists, dose response, selectivity assay for APJ receptor antagonist project, cell-based, uHTS hits (AID 463214); assay type: functional;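 note: antagonist potency against angiotensin II stimulated AT1 response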
T5 sequence (P30556 whole entry): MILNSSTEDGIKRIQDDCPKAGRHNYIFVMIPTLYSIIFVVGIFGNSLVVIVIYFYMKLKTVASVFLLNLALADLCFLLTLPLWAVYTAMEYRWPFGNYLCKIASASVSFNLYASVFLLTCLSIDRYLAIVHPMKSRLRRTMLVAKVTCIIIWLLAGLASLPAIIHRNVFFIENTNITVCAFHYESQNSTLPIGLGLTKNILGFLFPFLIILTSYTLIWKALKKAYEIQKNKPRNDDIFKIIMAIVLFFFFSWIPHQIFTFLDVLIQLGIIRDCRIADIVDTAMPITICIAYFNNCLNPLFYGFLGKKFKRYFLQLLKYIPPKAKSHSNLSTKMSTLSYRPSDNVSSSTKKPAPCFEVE

[10] = target: Beta-galactosidase (Escherichia coli, UniProt Q8VNN2); assay: PubChem AID 485352; assay type: functional
Sequence of Beta-galactosidase (Q8VNN2 whole entry): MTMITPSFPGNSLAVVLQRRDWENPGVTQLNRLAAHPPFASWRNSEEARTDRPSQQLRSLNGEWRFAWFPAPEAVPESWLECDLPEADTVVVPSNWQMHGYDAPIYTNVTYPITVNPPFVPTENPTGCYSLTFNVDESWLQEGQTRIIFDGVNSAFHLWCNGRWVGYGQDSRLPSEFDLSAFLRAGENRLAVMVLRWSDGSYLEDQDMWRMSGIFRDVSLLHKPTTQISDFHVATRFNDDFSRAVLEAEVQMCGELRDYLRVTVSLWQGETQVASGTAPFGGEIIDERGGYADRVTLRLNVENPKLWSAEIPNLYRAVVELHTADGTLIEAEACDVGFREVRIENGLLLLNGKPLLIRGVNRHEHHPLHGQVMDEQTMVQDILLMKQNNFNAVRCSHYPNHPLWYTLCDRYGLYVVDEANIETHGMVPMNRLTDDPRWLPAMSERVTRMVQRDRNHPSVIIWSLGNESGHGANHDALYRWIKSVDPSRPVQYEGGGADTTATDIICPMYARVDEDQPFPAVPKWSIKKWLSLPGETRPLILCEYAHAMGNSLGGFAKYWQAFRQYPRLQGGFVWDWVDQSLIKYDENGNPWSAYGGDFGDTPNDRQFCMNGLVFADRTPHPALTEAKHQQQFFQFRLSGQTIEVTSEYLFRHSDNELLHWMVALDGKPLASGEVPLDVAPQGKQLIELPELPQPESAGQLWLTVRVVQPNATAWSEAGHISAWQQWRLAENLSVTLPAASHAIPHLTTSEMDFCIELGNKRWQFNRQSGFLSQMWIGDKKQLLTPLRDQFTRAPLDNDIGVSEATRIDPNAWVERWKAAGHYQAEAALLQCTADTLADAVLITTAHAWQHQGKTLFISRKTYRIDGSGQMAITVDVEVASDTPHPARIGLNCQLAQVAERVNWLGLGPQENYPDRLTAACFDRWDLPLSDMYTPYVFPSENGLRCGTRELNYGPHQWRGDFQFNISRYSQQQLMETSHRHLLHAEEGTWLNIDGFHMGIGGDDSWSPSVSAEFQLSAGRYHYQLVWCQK

[11] = target: T6, Adenosylmethionine-8-amino-7-oxononanoate aminotransferase (Mycobacterium tuberculosis, UniProt P9WQ81); assay: Mycobacterium tuberculosis BioA enzyme inhibitor Measured in Biochemical System Using Plate Reader - 2163-02_Inhibitor_Dose_CherryPick_Activity.; assay type: functional, Mycobacterium tuberculosis UT205
T6 sequence (P9WQ81 whole entry): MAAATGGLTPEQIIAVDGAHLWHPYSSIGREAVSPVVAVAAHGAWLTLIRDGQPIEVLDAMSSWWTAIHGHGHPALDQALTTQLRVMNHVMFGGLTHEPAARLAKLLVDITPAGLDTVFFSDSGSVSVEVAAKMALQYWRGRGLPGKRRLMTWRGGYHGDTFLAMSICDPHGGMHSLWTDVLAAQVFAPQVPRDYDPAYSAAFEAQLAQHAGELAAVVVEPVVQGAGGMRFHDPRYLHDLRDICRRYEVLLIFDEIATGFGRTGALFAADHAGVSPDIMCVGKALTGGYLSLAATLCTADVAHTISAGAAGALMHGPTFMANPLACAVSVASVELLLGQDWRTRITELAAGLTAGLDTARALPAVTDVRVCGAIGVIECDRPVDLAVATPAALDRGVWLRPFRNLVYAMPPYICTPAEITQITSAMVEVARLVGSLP

[12] = target: Steroidogenic factor 1 (Homo sapiens, UniProt Q13285); assay: Counterscreen for inverse agonists of the liver receptor homolog-1 (LRH-1; NR5A2): Luminescence-based cell-based high throughput dose response assay to identify inverse agonists of the Steroidogenic Factor 1 Nuclear Receptor (SF1; NR5A1).; assay type: functional
Sequence of Steroidogenic factor 1 (Q13285 whole entry): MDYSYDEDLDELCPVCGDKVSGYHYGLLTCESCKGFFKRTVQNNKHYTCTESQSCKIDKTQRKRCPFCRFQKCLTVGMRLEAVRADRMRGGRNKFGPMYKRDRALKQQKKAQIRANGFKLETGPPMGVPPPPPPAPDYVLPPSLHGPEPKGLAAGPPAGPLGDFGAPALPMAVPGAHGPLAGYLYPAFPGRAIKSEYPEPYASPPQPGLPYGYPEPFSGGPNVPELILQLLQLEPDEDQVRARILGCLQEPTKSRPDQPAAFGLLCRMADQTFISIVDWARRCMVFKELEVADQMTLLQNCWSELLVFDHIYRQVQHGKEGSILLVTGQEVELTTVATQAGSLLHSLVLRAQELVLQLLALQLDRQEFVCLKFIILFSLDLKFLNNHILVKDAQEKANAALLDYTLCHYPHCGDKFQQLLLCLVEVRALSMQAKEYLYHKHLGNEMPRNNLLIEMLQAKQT

[13] = target: Nuclear receptor subfamily 5 group A member 2 (Homo sapiens, UniProt O00482); assay type: functional, cell-based;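 note: HEK293T cells transfected with LRH-1 and a StAR promoter luciferase reporter; potency for inhibitors that lower LRH-1 driven reporter light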
Sequence of Nuclear receptor subfamily 5 group A member 2 (O00482 whole entry): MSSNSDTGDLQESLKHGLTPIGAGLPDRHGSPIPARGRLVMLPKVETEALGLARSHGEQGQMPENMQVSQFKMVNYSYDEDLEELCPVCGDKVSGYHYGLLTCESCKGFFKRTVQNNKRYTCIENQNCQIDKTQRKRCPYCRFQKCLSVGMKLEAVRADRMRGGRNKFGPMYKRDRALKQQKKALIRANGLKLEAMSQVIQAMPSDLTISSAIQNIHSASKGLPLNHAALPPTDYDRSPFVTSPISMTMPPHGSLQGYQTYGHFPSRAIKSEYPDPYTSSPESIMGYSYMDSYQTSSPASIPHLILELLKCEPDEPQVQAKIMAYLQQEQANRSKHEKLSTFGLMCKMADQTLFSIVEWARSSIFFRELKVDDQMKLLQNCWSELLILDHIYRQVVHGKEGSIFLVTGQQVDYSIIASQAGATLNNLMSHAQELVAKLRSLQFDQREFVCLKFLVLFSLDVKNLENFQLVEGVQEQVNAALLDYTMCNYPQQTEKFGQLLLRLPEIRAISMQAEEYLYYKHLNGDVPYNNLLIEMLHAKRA

In the case of C#CCOCCOCCOCCNc1nc(N2CCN(C(=O)CCCCCCCCCCNC(=O)[C@H](CCCCN)n3cc(C)nn3)CC2)nc(N2CCN(C(=O)CCCCCCCCCCNC(=O)[C@@H]([C@H](C)O)n3cc(C)nn3)CC2)n1, the EC50 [1] is reported as > 54.7 µM (inactive), the IC50 [2] is reported as 11.1 µM (active) and the EC50 [3] is reported as > 54.7 µM (inactive). The EC50 [4] was > 54.7 µM (inactive), the IC50 [5] was > 20 µM (inactive) and the IC50 [6] was 11.4 µM (inactive). For the same compound, the IC50 [7] was 6.61 µM (active).

O=C(NNC(=S)Nc1ccc(Cl)cc1Cl)c1ccc(N2CCOCC2)c([N+](=O)[O-])c1 was tested, and the AC50 [8] was 40.2 µM (active), the IC50 [9] was > 40 µM (not active) and the EC50 [10] was > 40 µM (inactive).

In the case of COc1ccc(CCN(C)c2ccc(C(N)=O)cc2[N+](=O)[O-])cc1OC, the AC50 [11] is reported as 5.7 µM (active).

For Cc1ccc(NC(=O)CSCC(=O)Nc2sccc2C#N)cc1, the AC50 [8] was 18.9 µM (active).

COc1cccc(-c2ccc3c(c2)[C@H]2[C@H](CCN2C(=O)C2CCC2)[C@@H](CO)N3)c1 was tested, and the AC50 [11] was 7.13 µM (active).

For COc1ccc(NC(=O)COC(=O)c2cc(S(=O)(=O)N3CCCC3)ccc2O)cc1, the IC50 [12] was 11.2 µM (inactive) and the IC50 [13] was 35.9 µM (inactive).

— ChEMBL document CHEMBL1201862, “PubChem BioAssay data set” (2004)
